Laboratory results as given in ChEMBL document CHEMBL1201862, “PubChem BioAssay data set” (2004).
Calls of active or inactive are those of the source.

Assays:
[1] = molecular target: Aryl hydrocarbon receptor (Homo sapiens, UniProt P35869); assay: Luminescence-based cell-based high throughput dose response assay for activators of the Aryl Hydrocarbon Receptor (AHR). [Related pubchem assays: 2796 (Primary screen (AHR activators in singlicate)), 2845 (Confirmation screen (AHR activators in triplicate)), 434939 (Counterscreen (PXR activators in triplicate)), 2804 (Summary (AHR activators))]; assay type: ADME
[2] = tested on: H9c2; assay: cells; assay type: functional, cell-based; details: Rattus norvegicus, H9c2, Myocardium;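 note: confirmatory concentration-response retest of ultra-high-throughput screening hits for modulation of myocardial damage; cell death induced by hydrogen peroxide oxidative stress; compound pretreatment for 60 min then peroxide exposure for 2 h; potency is for protecting the cells against peroxide damage rather than for killing them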
[3] = cells; assay type: functional, cell-based; details: INS-1E
[4] = Dose-response inhibition of insulin secretion in a rat insulinoma line at 5 mM glucose (AID 1117331); assay type: functional, cell-based; details: INS-1E
[5] = A cytotoxicity screen of small molecule inhibitors of the PhoP region in Salmonella typhi identified in the primary screen. [Related pubchem assays: 1850, 1864, 1985 ]; assay type: functional
[6] = tested on: HeLa; assay: HeLa cell cytotoxicity, dose response, cytotoxicity control for MITF activator project, CellTiter-Glo luminescence, cherry-pick samples (AID 540259); assay type: functional, cell-based; details: Homo sapiens
[7] = M. tuberculosis growth inhibition, HTS (AID 449762); assay type: functional
[8] = molecular target: NADPH oxidase 1 (Homo sapiens, UniProt Q9Y5S8); assay: Late-stage luminescence-based cell-based dose response assay to identify inhibitors of NADPH oxidase 1 (NOX1): Synthesized analogs 2.; assay type: functional
[9] = molecular target: Glutathione-S-transferase (Schistosoma japonicum, UniProt Q26513); assay: biotin-GST/anti-GST TR-FRET signal inhibitors, dose response, artefact control for Vif-APOBEC3G degradation inhibitor project, biochemical (AID 1117362); assay type: functional
[10] = molecular target: T1, Small ubiquitin-related modifier 1 (Homo sapiens, UniProt P63165); assay: inhibitors of SUMO1 peptide binding, dose response, biochemical, fluorescence polarization, uHTS hits (AID 624382); assay type: functional; details: read-out: IC50_Mean
[11] = molecular target: T2, Carboxy-terminal domain RNA polymerase II polypeptide A small phosphatase 1 (Homo sapiens, UniProt Q9GZU7); assay: inhibitors of CTDSP1, concentration-response testing, biochemical assay, absorbance-based, actives from ultra-high-throughput screening (AID 540297); assay type: functional
T2 sequence (Q9GZU7 whole entry): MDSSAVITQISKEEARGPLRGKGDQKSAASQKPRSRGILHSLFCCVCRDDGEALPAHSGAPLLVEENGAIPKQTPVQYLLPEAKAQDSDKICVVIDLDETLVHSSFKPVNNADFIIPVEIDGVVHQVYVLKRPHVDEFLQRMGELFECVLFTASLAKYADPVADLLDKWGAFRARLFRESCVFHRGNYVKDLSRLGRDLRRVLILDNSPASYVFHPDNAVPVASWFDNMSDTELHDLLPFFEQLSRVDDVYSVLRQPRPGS

[12] = molecular target: ELAV-like protein 1 (Homo sapiens, UniProt Q15717); assay: Identify HuR specific inhibitors.; assay type: functional
[13] = molecular target: T1, Small ubiquitin-related modifier 1; assay: inhibitors of SUMO1 partner interactions, dose response, biochemical, FRET (AID 624383); assay type: functional; details: read-out: IC50_Mean
[14] = M. tuberculosis H37Rv growth inhibitors, H37Rv strain (AID 1626); assay type: functional
[15] = molecular target: T3, Low molecular weight phosphotyrosine protein phosphatase (Homo sapiens, UniProt P24666); assay: LMPTP phosphatase inhibitors, colorimetric pNPP readout, dose response, orthogonal assay, biochemical, absorbance, pNPP substrate, LMPTP-A isoform, set 2 (AID 743308); assay type: functional
T3 sequence (P24666 whole entry): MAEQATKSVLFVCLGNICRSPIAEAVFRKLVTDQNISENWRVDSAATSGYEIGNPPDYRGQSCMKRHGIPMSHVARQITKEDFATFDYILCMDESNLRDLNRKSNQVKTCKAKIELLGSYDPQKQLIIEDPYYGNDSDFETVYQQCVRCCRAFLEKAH

[16] = molecular target: T3, Low molecular weight phosphotyrosine protein phosphatase; assay: LMPTP phosphatase inhibitors, dose response, biochemical, OMFP substrate, fluorescence intensity, set 2 (AID 743307); assay type: functional
[17] = molecular target: G-protein coupled receptor 183 (Homo sapiens, UniProt P32249); assay: SAR confirmation of small molecule antagonists of the EBI2 receptor via a luminescent beta-arrestin assa.; assay type: functional
[18] = tested on: HEK293; assay: cells; details: Homo sapiens
[19] = molecular target: Mitogen-activated protein kinase 10 (Homo sapiens, UniProt P53779); assay: Dose response biochemical screening assay for inhibitors of c-Jun N-Terminal Kinase 3 (JNK3). [Related pubchem assays: 746 ]
[20] = tested on: HEK293; assay: cells; details: Homo sapiens; remark: listed apart in the source

T1 sequence (P63165 whole entry, the tested form may be a part): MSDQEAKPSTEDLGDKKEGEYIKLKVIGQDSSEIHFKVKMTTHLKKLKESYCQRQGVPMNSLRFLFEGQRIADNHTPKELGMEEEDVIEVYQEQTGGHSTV
Sequence of ELAV-like protein 1 (Q15717 whole entry): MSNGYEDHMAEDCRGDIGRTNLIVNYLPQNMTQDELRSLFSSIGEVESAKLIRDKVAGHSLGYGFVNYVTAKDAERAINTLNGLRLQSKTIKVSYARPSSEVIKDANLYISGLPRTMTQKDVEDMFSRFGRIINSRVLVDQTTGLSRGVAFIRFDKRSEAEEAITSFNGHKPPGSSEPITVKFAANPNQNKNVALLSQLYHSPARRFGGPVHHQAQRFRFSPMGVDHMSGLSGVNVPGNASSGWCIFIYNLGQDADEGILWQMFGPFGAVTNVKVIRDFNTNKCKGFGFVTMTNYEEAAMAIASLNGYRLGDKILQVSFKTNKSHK
Sequence of G-protein coupled receptor 183 (P32249 whole entry): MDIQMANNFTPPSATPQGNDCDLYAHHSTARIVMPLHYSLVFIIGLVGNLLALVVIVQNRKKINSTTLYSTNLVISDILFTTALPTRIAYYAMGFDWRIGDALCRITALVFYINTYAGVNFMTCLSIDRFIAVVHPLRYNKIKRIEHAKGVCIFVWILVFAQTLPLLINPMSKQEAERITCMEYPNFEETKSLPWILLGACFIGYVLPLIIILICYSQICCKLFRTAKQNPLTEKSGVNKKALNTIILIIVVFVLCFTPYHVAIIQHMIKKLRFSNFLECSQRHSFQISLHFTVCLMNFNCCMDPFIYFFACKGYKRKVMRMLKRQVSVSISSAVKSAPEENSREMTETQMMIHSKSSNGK
Sequence of Mitogen-activated protein kinase 10 (P53779 whole entry): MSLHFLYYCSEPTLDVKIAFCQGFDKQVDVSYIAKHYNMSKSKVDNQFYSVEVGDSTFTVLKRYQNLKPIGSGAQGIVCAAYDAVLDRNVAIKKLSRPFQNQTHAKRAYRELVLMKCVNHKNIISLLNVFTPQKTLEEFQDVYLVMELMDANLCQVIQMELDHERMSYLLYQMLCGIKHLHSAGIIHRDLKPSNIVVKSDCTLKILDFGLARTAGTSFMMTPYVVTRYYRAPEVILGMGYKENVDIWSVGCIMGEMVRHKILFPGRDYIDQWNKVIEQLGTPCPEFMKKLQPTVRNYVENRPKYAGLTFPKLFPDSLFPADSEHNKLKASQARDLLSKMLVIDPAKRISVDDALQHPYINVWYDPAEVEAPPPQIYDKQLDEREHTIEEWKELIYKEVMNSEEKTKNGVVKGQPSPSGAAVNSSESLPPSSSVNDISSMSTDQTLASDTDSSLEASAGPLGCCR
Sequence of NADPH oxidase 1 (Q9Y5S8 whole entry): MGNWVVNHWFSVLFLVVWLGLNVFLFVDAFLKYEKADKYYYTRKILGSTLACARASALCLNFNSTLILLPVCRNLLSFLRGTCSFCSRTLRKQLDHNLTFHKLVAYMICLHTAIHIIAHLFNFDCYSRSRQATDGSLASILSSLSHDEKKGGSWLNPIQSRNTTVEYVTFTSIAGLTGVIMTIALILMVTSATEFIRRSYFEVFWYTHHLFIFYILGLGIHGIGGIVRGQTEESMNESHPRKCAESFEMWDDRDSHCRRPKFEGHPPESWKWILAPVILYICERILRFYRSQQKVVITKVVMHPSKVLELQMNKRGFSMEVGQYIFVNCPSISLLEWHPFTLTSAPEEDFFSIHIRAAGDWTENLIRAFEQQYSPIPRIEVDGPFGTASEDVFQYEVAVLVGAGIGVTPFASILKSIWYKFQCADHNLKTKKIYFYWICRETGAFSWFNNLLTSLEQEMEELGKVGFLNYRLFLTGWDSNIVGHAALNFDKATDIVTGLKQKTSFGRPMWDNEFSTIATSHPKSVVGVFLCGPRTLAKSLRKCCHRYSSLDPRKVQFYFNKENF
Sequence of Aryl hydrocarbon receptor (P35869 whole entry): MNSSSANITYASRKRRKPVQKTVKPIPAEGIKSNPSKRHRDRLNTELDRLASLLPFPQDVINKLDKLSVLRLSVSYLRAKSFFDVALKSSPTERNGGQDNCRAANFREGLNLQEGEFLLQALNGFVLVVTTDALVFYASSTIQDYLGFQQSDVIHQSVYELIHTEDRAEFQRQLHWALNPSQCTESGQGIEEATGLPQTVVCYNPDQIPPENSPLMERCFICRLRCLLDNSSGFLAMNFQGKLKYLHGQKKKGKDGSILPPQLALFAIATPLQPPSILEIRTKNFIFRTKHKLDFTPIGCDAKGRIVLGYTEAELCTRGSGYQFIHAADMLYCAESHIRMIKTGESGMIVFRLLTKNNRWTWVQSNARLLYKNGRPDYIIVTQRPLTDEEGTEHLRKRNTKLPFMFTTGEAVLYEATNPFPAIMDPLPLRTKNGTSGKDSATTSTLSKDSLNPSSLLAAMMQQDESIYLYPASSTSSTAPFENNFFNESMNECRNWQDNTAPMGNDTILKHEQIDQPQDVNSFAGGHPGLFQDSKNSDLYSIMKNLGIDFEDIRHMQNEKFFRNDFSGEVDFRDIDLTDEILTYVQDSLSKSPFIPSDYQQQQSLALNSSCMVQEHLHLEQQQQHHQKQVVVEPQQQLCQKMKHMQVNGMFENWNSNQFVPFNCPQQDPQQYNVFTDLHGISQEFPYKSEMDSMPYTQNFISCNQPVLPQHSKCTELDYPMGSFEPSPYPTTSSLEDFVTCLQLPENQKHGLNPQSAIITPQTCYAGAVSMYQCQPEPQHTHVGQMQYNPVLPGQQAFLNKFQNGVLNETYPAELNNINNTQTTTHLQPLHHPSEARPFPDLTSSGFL
Sequence of Glutathione-S-transferase (Q26513 whole entry): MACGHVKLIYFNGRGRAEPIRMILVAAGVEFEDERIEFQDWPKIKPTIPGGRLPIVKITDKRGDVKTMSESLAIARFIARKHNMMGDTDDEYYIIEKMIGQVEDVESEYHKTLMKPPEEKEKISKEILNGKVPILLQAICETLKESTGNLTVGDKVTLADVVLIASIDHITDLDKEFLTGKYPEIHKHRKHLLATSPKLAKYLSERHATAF

## CCCCc1cc2c(c(NC(C)=O)n1)c(=O)oc1ccccc12
[1]
  EC50: 3.25 µM (active)

## O=c1[nH]c2ccccc2n1CCCN1CCC(n2c(=O)[nH]c3cc(Cl)ccc32)CC1 [DOMPERIDONE]
[2]
  IC50: > 79 µM (inactive)
[3]
  IC50: > 33.3 µM (inactive)
[4]
  IC50: 12.4 µM (inactive)

## Nc1ccc(N=Nc2ccccc2)c(N)n1
[5]
  EC50: > 50 µM (active)
[6]
  AC50: 36 µM (active)
[7]
  IC50: > 100 µM (active)

## CN1c2ccccc2Sc2cc(N=[N+]=[N-])ccc21
[8]
  IC50: 0.73 µM (active)

## CCOC(=O)C(=O)Cc1cccnn1
[9]
  IC50: > 100 µM (active)
[10]
  IC50: > 66.6 µM (inactive)
[11]
  IC50: 4.08 µM (active)
[12]
  IC50: 4.6 µM (inactive)
[13]
  IC50: 6.34 µM (active)

## C=CCn1c(COc2ccc3c(c2)CCCC3)nnc1SCC(=O)Nc1cccc(SC)c1
[14]
  IC50: > 100 µM (active)

## COc1cccc(-c2cc(NCCCN3CCCCC3)c3ccccc3n2)c1
[15]
  IC50: 4.89 µM (active)
[16]
  IC50: 2.21 µM (active)

## CCCCN1CCN(C(=O)/C=C/c2ccc(Br)cc2)CC1
[17]
  IC50: 0.0021 µM (active)

## COc1cc(C2NC(=O)NC(C)=C2C(=O)OCc2ccccc2)ccc1O (stereo not given)
[18]
  EC50: > 59.6 µM (inactive)
[19]
  IC50: > 93.1 µM (not active)
[20]
  EC50: > 59.6 µM (inactive)
